Test results from patent publication US12390440B2, “Immunomodulating trifluoromethyl-aminal azalides” (Zoetis Services LLC, priority 2020, dated 2025).
In brackets after ≈: the same amount, converted by molar mass. Read-outs that look alike come from different tables or passages of the source.

What was measured:
[1] = system: IL-1β; experiment: Bovine whole blood assay, IL-1β; type: cell-based; details: overstimulation of IL-1β, perceived cellular toxicity concentration;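 also: compound concentration at which rising IL-1β release signals cytotoxicity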
Method: (§1) (protected from light) for 30 minutes.

[2] = system: TNF-α; experiment: Bovine whole blood assay, LPS-induced TNF-α; type: cell-based; details: Bos taurus, fresh whole bovine blood, LPS 1 μg/mL
Method: as §1

[3] = system: P. multocida 46572; experiment: In vivo mouse lung infection challenge model (murine efficacy); details: for % Survival: 20 mg/kg subcutaneous, harmonized survival relative to vehicle and M9 controls, study ended Day 10
Method: The challenge organism was P. multocida 46572. Target challenge concentration was 5×10^2 CFU/mouse. Isolated colonies from overnight growth (37° C. with 5% CO2) on trypticase soy agar (TSA II) blood plates were transferred to room temperature Brain Heart Infusion Broth (BHIB). The broth culture was incubated 3.5-4 hours to approximately mid-log phase of growth, as measured by forward light scatter at 600 nm (OD600, 0.200). The culture was centrifuged to collect the bacterial pellet. The pellet was re-suspended in BHIB and adjusted to provide an approximate concentration of 2.7 log^10 colony forming units (CFU) in 0.04 mL at the highest concentration. The challenge inoculum concentration was confirmed by serial dilutions of the inoculum for CFU enumeration. On Day −5, CD-1 female mice were received. Mice were given standard rodent diet and water ad libitum. On Day 0, bacterial inoculum (0.04 mL) was administered to each mouse (n=36) intranasally. Compounds of the invention were dosed at 20 mg/kg (0.1 mL) in a buffered (˜pH 5.4) propylene glycol, monothioglycerol and water solution by subcutaneous injection. Animals were observed from Days 1-10. The study was terminated on Day 10. In addition, some treatment groups were sampled at 6, 24, and 48 hours post bacterial challenge for RNA sequence analysis of lung tissue.
The murine efficacy model (P. multocida challenge) was optimized, and the treatment group size was powered to be able to observe statistically significant improvement of survival to expected ranges for immunomodulatory compounds. The experimental design was a randomized complete block design. Mice were individually identified and treatment groups comingled within a cage, with every treatment group equally represented across cages. Mortality was the primary variable. Mortality data was analyzed using a generalized mixed model with fixed effect of treatment and random effect of block. Survival time was also analyzed using the SAS PHREG (survival analysis) procedure to examine whether there were significant differences between treatment groups and the control group. Numerous compounds of the invention and M9 (positive control) were tested in this model at a dose of 20 mg/kg (Table 3). Typical percent survival for no treatment control is in the range of 0-20% based on study to study variation in challenge inoculum and rate of infection. […] Mouse survival for M9 was about 90-100%, further supporting its residual antibacterial properties against the bacterial strain. Harmonized survival accounts for % survival relative to vehicle (“−” control) and M9 (“+” control)) survival data (Table 3).

[4] = system: E. coli; experiment: MIC, E. coli; details: Escherichia coli
[5] = system: M. haemolytica; experiment: MIC, M. haemolytica; details: for MIC: Mannheimia haemolytica
[6] = system: P. multocida; experiment: MIC, P. multocida; details: for MIC: Pasteurella multocida
[7] = system: BRD pathogens, M. haemolytica and P. multocida; experiment: MIC screening panel, BRD pathogens (CLSI broth micro-dilution); details: read-out: MIC flag (*) at Ex #
[8] = system: S. aureus; experiment: MIC, S. aureus; details: Staphylococcus aureus
[9] = system: IL-6; experiment: Bovine whole blood assay, IL-6; type: cell-based; details: Bos taurus, fresh whole bovine blood, LPS 1 μg/mL
Method: as §1

[10] = system: H. somni; experiment: MIC, H. somni; details: H. somni strains
[11] = M. haemolytica 46571, bovine efficacy challenge strain
[12] = P. multocida 46572, murine efficacy challenge strain

Structure (SMILES) | IL-1β OS of LPS [1] | IC50 [2] | % Survival [3] | MIC ([4]; E. coli 25922) | MIC ([4]; E. coli W3110) | MIC ([5]; M. haemolytica 12726) | MIC ([5]; M. haemolytica 33396) | MIC [5, 11] | MIC ([6]; P. multocida 43137) | MIC [6, 12] | MIC [8] | MIC values, range over strains [10] | further results
CCCNC[C@]1(O)[C@H](C)O[C@@H](O[C@H]2[C@H](C)[C@@H](O[C@@H]3O[C@H](C)C[C@H]4[C@H]3OC(C(F)(F)F)N4C)[C@](C)(O)C[C@@H](C)CN[C@H](C)[C@@H](O)[C@](C)(O)[C@@H](CC)OC(=O)[C@@H]2C)C[C@@]1(C)OC (stereo partly drawn) [Example A-1, (2R,3S,4R,5R,8R,10R,11R,12S,13S,14R)-11-(((3aR,4S,6R,7aS)-1,6-dimethyl-2-(trifluoromethyl)hexahydro-2H-pyrano[4,3-d]oxazol-4-yl)oxy)-2-ethyl-13-(((2R,4R,5S,6S)-5-((propylamino)methyl)-5-hydroxy-4-methoxy-4,6-dimethyltetrahydro-2H-pyran-2-yl)oxy)-3,4,10-trihydroxy-3,5,8,10,12,14-hexamethyl-1-oxa-6-azacyclopentadecan-15-one] | >500 µM | < 3 µM | 43% | > 64 µg/mL | > 64 µg/mL | > 64 µg/mL | > 64 µg/mL | > 64 µg/mL | > 64 µg/mL | 64 µg/mL (≈ 73.4 µM) | > 64 µg/mL |  | MIC ([6]; read-out: MIC flag (*) at Ex. #, P. multocida challenge strain (46572K), Table 3): < 64 µg/mL; MIC [7]: < 64 µg/mL
CC[C@H]1OC(=O)[C@H](C)[C@@H](O[C@H]2C[C@@](C)(OC)[C@](O)(CNCCOC)[C@H](C)O2)[C@H](C)[C@@H](O[C@@H]2O[C@H](C)C[C@H]3[C@H]2OC(C(F)(F)F)N3C)[C@](C)(O)C[C@@H](C)CN[C@H](C)[C@@H](O)[C@]1(C)O (stereo partly drawn) [Example A-2, (2R,3S,4R,5R,8R,10R,11R,12S,13S,14R)-11-(((3aR,4S,6R,7aS)-1,6-dimethyl-2-(trifluoromethyl)hexahydro-2H-pyrano[4,3-d]oxazol-4-yl)oxy)-2-ethyl-3,4,10-trihydroxy-13-(((2R,4R,5S,6S)-5-hydroxy-4-methoxy-5-(((2-methoxyethyl)amino)methyl)-4,6-dimethyltetrahydro-2H-pyran-2-yl)oxy)-3,5,8,10,12,14-hexamethyl-1-oxa-6-azacyclopentadecan-15-one] |  |  | 18% |  |  |  |  |  |  |  |  |  | 
CC[C@H]1OC(=O)[C@H](C)[C@@H](O[C@H]2C[C@@](C)(OC)[C@](O)(CNCCO)[C@H](C)O2)[C@H](C)[C@@H](O[C@@H]2O[C@H](C)C[C@H]3[C@H]2OC(C(F)(F)F)N3C)[C@](C)(O)C[C@@H](C)CN[C@H](C)[C@@H](O)[C@]1(C)O (stereo partly drawn) [Example A-3, (2R,3S,4R,5R,8R,10R,11R,12S,13S,14R)-11-(((3aR,4S,6R,7aS)-1,6-dimethyl-2-(trifluoromethyl)hexahydro-2H-pyrano[4,3-d]oxazol-4-yl)oxy)-2-ethyl-3,4,10-trihydroxy-13-(((2R,4R,5S,6S)-5-hydroxy-5-(((2-hydroxyethyl)amino)methyl)-4-methoxy-4,6-dimethyltetrahydro-2H-pyran-2-yl)oxy)-3,5,8,10,12,14-hexamethyl-1-oxa-6-azacyclopentadecan-15-one] | 32 µM | 20 µM | 11% | > 64 µg/mL | > 64 µg/mL | > 64 µg/mL | > 64 µg/mL | > 64 µg/mL | > 64 µg/mL | > 64 µg/mL | > 64 µg/mL |  | IC50 [9]: 40 µM
CC[C@H]1OC(=O)[C@H](C)[C@@H](O[C@H]2C[C@@](C)(OC)[C@](O)(CNCCN3CCCC3=O)[C@H](C)O2)[C@H](C)[C@@H](O[C@@H]2O[C@H](C)C[C@H]3[C@H]2OC(C(F)(F)F)N3C)[C@](C)(O)C[C@@H](C)CN[C@H](C)[C@@H](O)[C@]1(C)O (stereo partly drawn) [Example A-12, (2R,3S,4R,5R,8R,10R,11R,12S,13S,14R)-11-(((3aR,4S,6R,7aS)-1,6-dimethyl-2-(trifluoromethyl)hexahydro-2H-pyrano[4,3-d]oxazol-4-yl)oxy)-2-ethyl-3,4,10-trihydroxy-13-(((2R,4R,5S,6S)-5-hydroxy-4-methoxy-4,6-dimethyl-5-(((2-(2-oxopyrrolidin-1-yl)ethyl)amino)methyl)tetrahydro-2H-pyran-2-yl)oxy)-3,5,8,10,12,14-hexamethyl-1-oxa-6-azacyclopentadecan-15-one] | 40 µM | 45 µM |  | > 64 µg/mL | > 64 µg/mL | > 64 µg/mL | > 64 µg/mL | > 64 µg/mL | > 64 µg/mL | > 64 µg/mL | > 64 µg/mL |  | IC50 [9]: 24 µM
CC[C@H]1OC(=O)[C@H](C)[C@@H](O[C@H]2C[C@@](C)(OC)[C@](O)(CN3CCOCC3)[C@H](C)O2)[C@H](C)[C@@H](O[C@@H]2O[C@H](C)C[C@H]3[C@H]2OC(C(F)(F)F)N3C)[C@](C)(O)C[C@@H](C)CN[C@H](C)[C@@H](O)[C@]1(C)O (stereo partly drawn) [Example B-1, (2R,3S,4R,5R,8R,10R,11R,12S,13S,14R)-11-(((3aR,4S,6R,7aS)-1,6-dimethyl-2-(trifluoromethyl)hexahydro-2H-pyrano[4,3-d]oxazol-4-yl)oxy)-2-ethyl-3,4,10-trihydroxy-13-(((2R,4R,5S,6S)-5-hydroxy-4-methoxy-4,6-dimethyl-5-(morpholinomethyl)tetrahydro-2H-pyran-2-yl)oxy)-3,5,8,10,12,14-hexamethyl-1-oxa-6-azacyclopentadecan-15-one] | 13 µM | 10 µM |  | > 64 µg/mL | > 64 µg/mL | > 64 µg/mL | > 64 µg/mL | > 64 µg/mL | > 64 µg/mL | > 64 µg/mL | > 64 µg/mL |  | 
CC[C@H]1OC(=O)[C@H](C)[C@@H](O[C@H]2C[C@@](C)(OC)[C@](O)(CN3CCN(C)CC3)[C@H](C)O2)[C@H](C)[C@@H](O[C@@H]2O[C@H](C)C[C@H]3[C@H]2OC(C(F)(F)F)N3C)[C@](C)(O)C[C@@H](C)CN[C@H](C)[C@@H](O)[C@]1(C)O (stereo partly drawn) [Example B-2, (2R,3S,4R,5R,8R,10R,11R,12S,13S,14R)-11-(((3aR,4S,6R,7aS)-1,6-dimethyl-2-(trifluoromethyl)hexahydro-2H-pyrano[4,3-d]oxazol-4-yl)oxy)-2-ethyl-3,4,10-trihydroxy-13-(((2R,4R,5S,6S)-5-hydroxy-4-methoxy-4,6-dimethyl-5-((4-methylpiperazin-1-yl)methyl)tetrahydro-2H-pyran-2-yl)oxy)-3,5,8,10,12,14-hexamethyl-1-oxa-6-azacyclopentadecan-15-one] | 5 µM | 5 µM | 47% |  |  |  |  |  |  |  |  |  | clinical efficacy in P. multocida infection in mice ([3]; mouse, in vivo): clinically efficacious
CCN1CCN(c2cc3c(cc2F)c(=O)c(C(=O)O)cn3C2CC2)CC1 [enrofloxacin] |  |  |  |  |  |  |  |  |  |  |  | <0.06 to 1 µg/mL | 
CS(=O)(=O)c1ccc([C@@H](O)[C@@H](CF)NC(=O)C(Cl)Cl)cc1 [florfenicol] |  |  |  |  |  |  |  |  |  |  |  | 0.12 to 2 µg/mL | 
CCCN1C[C@H](C)[C@@H](O)[C@](C)(O)[C@@H](CC)OC(=O)[C@H](C)[C@@H](O[C@H]2C[C@@](C)(OC)[C@@H](O)[C@H](C)O2)[C@H](C)[C@@H](O[C@@H]2O[C@H](C)C[C@H](N(C)C)[C@H]2O)[C@](C)(O)C[C@H]1C [gamithromycin, reference compound] |  |  |  |  |  |  |  |  |  |  |  | 0.25 to 8 µg/mL | MIC values, range over strains ([5]; the same M. haemolytica strains of the screening panel): 0.5 to 1 µg/mL; MIC values, range over strains ([6]; the same P. multocida strains of the screening panel): 1 to 2 µg/mL
